The values below are quoted from earlier work in patent US20240024159A1, “POSTERIOR CHAMBER PLACEMENT OF SUSTAINED RELEASE IMPLANT” (Allergan, Inc., priority 2020, published 2024).

This data set concerns prostaglandin (PG) sensitive receptors.

As for `CCNC(=O)CCC/C=C\C[C@@H]1[C@@H](/C=C/[C@@H](O)CCc2ccccc2)[C@H](O)C[C@@H]1O` [bimatoprost], the “interaction with prostaglandin (PG) sensitive receptors” value is “no meaningful interaction”.
